In data set [1] the target is T1, recombinant human-MT1 receptor (Homo sapiens, UniProt P48039).
T1 construct: expressed in transfected cells; host or cells: unnamed cell line stably overexpressing human MT1, co-expressing mitochondrial apoaequorin and Gα16
Put plainly: In vitro MT1 screening, agonist activity (AequoScreen aequorin luminescence). Format: cell-based. To be noted: percentage of activity relative to the reference agonist at the EC100 concentration; for activation at 0.001 µM: read-out: Agonism percentages of MT1, 1 nM; for activation at 0.1 µM: read-out: Agonism percentages of MT1, 100 nM. The text has this: To proceed with compound screening over MT1 receptor, a cell line characterised by a stable overexpression of recombinant human-MT1 receptor was used. This line co-expresses mitochondrial apoaequorin and subunit Gα16.
Subunit Gα16 belongs to […], in which intracelular signal transduction is produced via phospholipase (PLC). Activation of PLC produces an increment of inositol-triphosphate levels and intracellular calcium levels. This increment in calcium levels is, therefore, independent and full compatible with the signal transduction of MT1 receptor.
After binding to calcium, aequorin carries out the oxidation of colenterazine to colenteramide, a luminescent reaction.
Assay protocol for agonist screening consists in an overnight incubation of cells and colenterazine, being performed by an AequoScreen™ system instrument, PerkinElmer, USA. After that this mixture was injected over a plate that contains the solution of the compounds to screen and luminescence was immediately read. Only in case of antagonism screening, after 15-30 min of the first injection the reference agonist was added in the same well, and then luminescence was measured.
Agonist activity was calculated as percentage of activity relative to the reference agonist at the EC100 concentration. Activity of antagonists was expressed as the inhibition percentage over the activity of reference agonist at its EC80, concentration.

For data set [2] the following is noted: therapeutic use in humans; cited from earlier work.

We go through four molecules from US8227501B2, “1,6-dihydro-2H-3-oxa-6-aza-as-indacene compounds” (Ferrer Internacional, S.A., priority 2008, dated 2012).

The structures appear in SMILES notation.

T1 sequence (P48039 whole entry): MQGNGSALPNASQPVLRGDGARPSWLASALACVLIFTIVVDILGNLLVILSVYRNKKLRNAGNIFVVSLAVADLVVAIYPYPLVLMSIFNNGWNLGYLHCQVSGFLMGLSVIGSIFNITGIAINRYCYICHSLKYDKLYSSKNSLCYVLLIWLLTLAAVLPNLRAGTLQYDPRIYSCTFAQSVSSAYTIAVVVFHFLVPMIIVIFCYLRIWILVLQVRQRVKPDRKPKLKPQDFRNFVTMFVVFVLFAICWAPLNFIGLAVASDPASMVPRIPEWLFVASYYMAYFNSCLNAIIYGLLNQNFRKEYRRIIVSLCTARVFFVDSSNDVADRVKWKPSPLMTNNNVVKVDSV

Take `CC(C)CC(=O)NCC(C)c1c[nH]c2cc(F)c3c(c12)CC(C)O3` (stereo not drawn) [Compound 36, N-[2-(4-Fluoro-2-methyl-1,6-dihydro-2H-3-oxa-6-aza-as-indacen-8-yl)-propyl]-3-methyl-butyramide]: in data set [1] (1 nM compound), the activation at 0.001 µM came out at 20.9%. The activation at 0.1 µM in data set [1] (100 nM compound) amounted to 89.7%.

In the case of `CC1Cc2c(c(F)cc3[nH]cc(C(C)CNC(=O)C4CC4)c23)O1` (stereo not drawn) [Compound 35, Cyclopropanecarboxylic acid [2-(4-fluoro-2-methyl-1,6-dihydro-2H-3-oxa-6-aza-as-indacen-8-yl)-propyl]-amide], in data set [1] (1 nM compound), the activation at 0.001 µM was 30.5%. For the same molecule, the activation at 0.1 µM in data set [1] (100 nM compound) worked out at 94%.

As for `CCC(=O)NCCc1c[nH]c2cc(F)c3c(c12)CCO3` [Compound 14, N-[2-(4-Fluoro-1,6-dihydro-2H-3-oxa-6-aza-as-indacen-8-yl)-ethyl]-propionamide], the activation at 0.001 µM in data set [1] (1 nM compound) is 55.1%. The activation at 0.1 µM in data set [1] (100 nM compound) came out at 102%.

For `COc1ccc2[nH]cc(CCNC(C)=O)c2c1` [Melatonin, reference compound], the “Agonism percentages of MT1, 1 nM” value in data set [1] (1 nM compound) is 48.0%. Further, the “Agonism percentages of MT1, 100 nM” value in data set [1] (100 nM compound) was determined as 102.6%. Further, the half-life result in data set [2] was “minutes”.
